Laboratory results published in ChEMBL document CHEMBL3045696, “CsFCelite catalyzed facile N-alkylation of 2(3H)-benzoxazolones and antimicrobial properties of 2-substituted benzoxazole and 3-substituted-2(3H)-benzoxazolone derivatives” (2011).
Values after ≈ are worked out from the molar mass of the structure shown. Active and inactive are the calls of the source. The calls are words filed in the database; no cut-off is given here.

Experiments:
Format in all cases: functional
Pseudomonas aeruginosa = assay: Antimicrobial activity against Pseudomonas aeruginosa MTCC 741 by broth dilution method
Klebsiella pneumoniae = assay: Antimicrobial activity against Klebsiella pneumoniae MTCC 618 by broth dilution method
Escherichia coli = assay: Antimicrobial activity against Escherichia coli MTCC 443 by broth dilution method
[1] = tested on: Staphylococcus epidermidis; assay: Antimicrobial activity against Staphylococcus epidermidis by broth dilution method
Staphylococcus aureus = assay: Antimicrobial activity against Staphylococcus aureus MTCC 96 by broth dilution method
Bacillus subtilis = assay: Antimicrobial activity against Bacillus subtilis MTCC 441 by broth dilution method
Rhizopus arrhizus [2] = assay: Antimicrobial activity against Rhizopus oryzae MTCC 262 at 150 ug after 48 hr by agar well diffusion method; details: for zone of inhibition at 150 µg/disc: MTCC 262, 48 h, read-out: IZ
Candida albicans [3] = assay: Antimicrobial activity against Candida albicans MTCC 227 at 100 ug after 48 hr by agar well diffusion method; details: for zone of inhibition at 100 µg/disc: MTCC 227, 48 h, read-out: IZ
Aspergillus niger [4] = assay: Antimicrobial activity against Aspergillus niger MTCC 282 at 100 ug after 48 hr by agar well diffusion method
Saccharomyces cerevisiae [5] = assay: Antimicrobial activity against Saccharomyces cerevisiae MTCC 36 at 100 ug after 48 hr by agar well diffusion method
Candida albicans [6] = assay: Antimicrobial activity against Candida albicans MTCC 227 at 150 ug after 48 hr by agar well diffusion method; details: for zone of inhibition at 150 µg/disc: MTCC 227, 48 h, read-out: IZ
Aspergillus niger [7] = assay: Antimicrobial activity against Aspergillus niger MTCC 282 at 150 ug after 48 hr by agar well diffusion method
Rhizopus arrhizus [8] = assay: Antimicrobial activity against Rhizopus oryzae MTCC 262 at 100 ug after 48 hr by agar well diffusion method; details: for zone of inhibition at 100 µg/disc: MTCC 262, 48 h, read-out: IZ
Saccharomyces cerevisiae [9] = assay: Antimicrobial activity against Saccharomyces cerevisiae MTCC 36 at 150 ug after 48 hr by agar well diffusion method

| Compound | MIC (Pseudomonas aeruginosa) [µg/mL] | MIC (Klebsiella pneumoniae) [µg/mL] | MIC (Escherichia coli) [µg/mL] | MIC [1] [µg/mL] | MIC (Staphylococcus aureus) [µg/mL] | MIC (Bacillus subtilis) [µg/mL] | Activity (Rhizopus arrhizus [2]) | Activity (Candida albicans [3]) | Activity (Aspergillus niger [4]) | Activity (Saccharomyces cerevisiae [5]) | Activity (Candida albicans [6]) | Activity (Aspergillus niger [7]) | Activity (Rhizopus arrhizus [8]) | Activity (Saccharomyces cerevisiae [9]) | further results |
| --- | --- | --- | --- | --- | --- | --- | --- | --- | --- | --- | --- | --- | --- | --- | --- |
| CN[C@@H]1[C@H](O[C@H]2[C@H](O[C@H]3[C@H](O)[C@@H](O)[C@H](N=C(N)N)[C@@H](O)[C@@H]3N=C(N)N)O[C@@H](C)[C@]2(O)C=O)O[C@@H](CO)[C@H](O)[C@H]1O [STREPTOMYCIN] | 1.56 (≈ 2.69 µM) | 3.12 (≈ 5.37 µM) | 6.25 (≈ 10.7 µM) | 3.12 (≈ 5.37 µM) | 6.25 (≈ 10.7 µM) | 6.25 (≈ 10.7 µM) | – | – | – | – | – | – | – | – | – |
| CN1CCN(c2nc3ccccc3o2)CC1 | 150 (≈ 690 µM) | 150 (≈ 690 µM) | 150 (≈ 690 µM) | 75 (≈ 345 µM) | 150 (≈ 690 µM) | 150 (≈ 690 µM) | inactive | inactive | inactive | inactive | inactive | inactive | inactive | inactive | – |
| O=c1oc2ccc(Cl)cc2n1Cc1ccccc1 | 150 (≈ 578 µM) | 75 (≈ 289 µM) | 150 (≈ 578 µM) | 75 (≈ 289 µM) | 75 (≈ 289 µM) | 150 (≈ 578 µM) | inactive | inactive | inactive | inactive | inactive | inactive | inactive | inactive | – |
| OCCN1CCN(c2nc3ccccc3o2)CC1 | 75 (≈ 303 µM) | 75 (≈ 303 µM) | 150 (≈ 607 µM) | 150 (≈ 607 µM) | 75 (≈ 303 µM) | 150 (≈ 607 µM) | inactive | inactive | inactive | inactive | inactive | inactive | inactive | inactive | – |
| c1cnc(N2CCN(c3nc4ccccc4o3)CC2)nc1 | 75 (≈ 267 µM) | 75 (≈ 267 µM) | 150 (≈ 533 µM) | 150 (≈ 533 µM) | 150 (≈ 533 µM) | 150 (≈ 533 µM) | – | inactive | inactive | inactive | inactive | inactive | – | inactive | zone of inhibition at 150 µg/disc (Rhizopus arrhizus [2]): 10 mm; zone of inhibition at 100 µg/disc (Rhizopus arrhizus [8]): 8 mm |
| O=c1oc2ccc(Cl)cc2n1CCCN1CCN(c2ccccn2)CC1 | 75 (≈ 201 µM) | 150 (≈ 402 µM) | 150 (≈ 402 µM) | 150 (≈ 402 µM) | 150 (≈ 402 µM) | 150 (≈ 402 µM) | inactive | inactive | inactive | inactive | inactive | inactive | inactive | inactive | – |
| CC1CN(c2nc3ccccc3o2)CCN1 (centres undefined) | 150 (≈ 690 µM) | 150 (≈ 690 µM) | 75 (≈ 345 µM) | 150 (≈ 690 µM) | 150 (≈ 690 µM) | 150 (≈ 690 µM) | inactive | inactive | inactive | inactive | inactive | inactive | inactive | inactive | – |
| O=c1oc2ccc(Cl)cc2n1CCCN1CCN(c2ccccc2)CC1 | 150 (≈ 403 µM) | 150 (≈ 403 µM) | 150 (≈ 403 µM) | 150 (≈ 403 µM) | 150 (≈ 403 µM) | 150 (≈ 403 µM) | inactive | inactive | inactive | inactive | inactive | inactive | inactive | inactive | – |
| c1ccc2oc(N3CCOCC3)nc2c1 | 150 (≈ 734 µM) | 37.5 (≈ 184 µM) | 150 (≈ 734 µM) | 150 (≈ 734 µM) | 75 (≈ 367 µM) | 150 (≈ 734 µM) | inactive | – | inactive | inactive | – | inactive | inactive | inactive | zone of inhibition at 100 µg/disc (Candida albicans [3]): 7 mm; zone of inhibition at 150 µg/disc (Candida albicans [6]): 9 mm |
| c1ccc2oc(N3CCCNCC3)nc2c1 | 75 (≈ 345 µM) | 75 (≈ 345 µM) | 75 (≈ 345 µM) | 150 (≈ 690 µM) | 150 (≈ 690 µM) | 150 (≈ 690 µM) | – | inactive | inactive | inactive | inactive | inactive | – | inactive | zone of inhibition at 150 µg/disc (Rhizopus arrhizus [2]): 10 mm; zone of inhibition at 100 µg/disc (Rhizopus arrhizus [8]): 8 mm |
| O=c1oc2ccc(Cl)cc2n1CCCN1CCN(c2cccc(Cl)c2)CC1 | 150 (≈ 369 µM) | 150 (≈ 369 µM) | 150 (≈ 369 µM) | 150 (≈ 369 µM) | 150 (≈ 369 µM) | 150 (≈ 369 µM) | inactive | inactive | inactive | inactive | inactive | inactive | inactive | inactive | – |
| C=CCCn1c(=O)oc2ccc(Cl)cc21 | 150 (≈ 671 µM) | 37.5 (≈ 168 µM) | 150 (≈ 671 µM) | 150 (≈ 671 µM) | 150 (≈ 671 µM) | 150 (≈ 671 µM) | – | inactive | inactive | inactive | inactive | inactive | – | inactive | zone of inhibition at 150 µg/disc (Rhizopus arrhizus [2]): 13 mm; zone of inhibition at 100 µg/disc (Rhizopus arrhizus [8]): 9 mm |
| CCN1CCN(c2nc3ccccc3o2)CC1 | 150 (≈ 649 µM) | 75 (≈ 324 µM) | 150 (≈ 649 µM) | 75 (≈ 324 µM) | 150 (≈ 649 µM) | 150 (≈ 649 µM) | inactive | – | – | – | – | – | inactive | – | zone of inhibition at 100 µg/disc (Candida albicans [3]): 8 mm; zone of inhibition at 100 µg/disc (Aspergillus niger [4]; MTCC 282, 48 h, read-out: IZ): 9 mm; zone of inhibition at 100 µg/disc (Saccharomyces cerevisiae [5]; MTCC 36, 48 h, read-out: IZ): 7 mm; zone of inhibition at 150 µg/disc (Candida albicans [6]): 10 mm; zone of inhibition at 150 µg/disc (Aspergillus niger [7]; MTCC 282, 48 h, read-out: IZ): 12 mm; zone of inhibition at 150 µg/disc (Saccharomyces cerevisiae [9]; MTCC 36, 48 h, read-out: IZ): 9 mm |
| CC1(C)S[C@@H]2[C@H](NC(=O)Cc3ccccc3)C(=O)N2[C@H]1C(=O)O [PENICILLIN G] | 12.5 (≈ 37.4 µM) | 6.25 (≈ 18.7 µM) | 12.5 (≈ 37.4 µM) | 3.12 (≈ 9.35 µM) | 1.56 (≈ 4.67 µM) | 1.56 (≈ 4.67 µM) | – | – | – | – | – | – | – | – | – |
| O=c1oc2ccc(Cl)cc2n1CCCN1CCN(c2ncccn2)CC1 | 150 (≈ 401 µM) | 150 (≈ 401 µM) | 150 (≈ 401 µM) | 150 (≈ 401 µM) | 150 (≈ 401 µM) | 150 (≈ 401 µM) | inactive | inactive | inactive | inactive | inactive | inactive | inactive | inactive | – |
